Here are results for 31 molecules from patent US10214519B2, “Phosphatidylinositol 3-kinase inhibitors” (Gilead Sciences, Inc., priority 2016, dated 2019).

The experiment concerns the target PI3Kβ (Homo sapiens (Human), UniProt P42338). Kind of experiment: PI3K isoform TR-FRET enzymatic assay (PI3Kβ). The format is biochemical. Particulars: 2× Km ATP, 30 minutes at 25° C. The protocol:
The compounds of formula (I) were characterized for their enzymatic activity against the PI3K isoforms. The activities were measured using a time-resolved fluorescence resonance energy transfer (TR-FRET) assay. TR-FRET monitored the formation of 3,4,5-inositol triphosphate molecule that competed with fluorescently labeled PIP3 for binding to the GRP-1 pleckstrin homology domain protein.
Class I PI3K isoforms were expressed and purified as heterodimeric recombinant proteins. All assay reagents and buffers for the TR-FRET assay were purchased from Millipore. […] The compounds were added to the assay solution and incubated for 30 minutes at 25° C. The reactions were terminated with a final concentration of 10 mM EDTA, 10 nM labeled-PIP3, and 35 nM Europium labeled GRP-1 detector protein before reading TR-FRET on an Envision plate reader (Ex: 340 nm; Em: 615/665 nm; 100 μs delay and 500 μs read window).
The results were normalized based on positive (1 μM wortmanin) and negative (DMSO) controls, and the IC50 values for PI3K α, β, δ, and γ were calculated from the fit of the dose-response curves to a four-parameter equation.
Background: In TR-FRET formats the signal depends on donor and acceptor labels being close together.

PI3Kβ, sequence (P42338 whole entry, the tested form may be a part, canonical isoform): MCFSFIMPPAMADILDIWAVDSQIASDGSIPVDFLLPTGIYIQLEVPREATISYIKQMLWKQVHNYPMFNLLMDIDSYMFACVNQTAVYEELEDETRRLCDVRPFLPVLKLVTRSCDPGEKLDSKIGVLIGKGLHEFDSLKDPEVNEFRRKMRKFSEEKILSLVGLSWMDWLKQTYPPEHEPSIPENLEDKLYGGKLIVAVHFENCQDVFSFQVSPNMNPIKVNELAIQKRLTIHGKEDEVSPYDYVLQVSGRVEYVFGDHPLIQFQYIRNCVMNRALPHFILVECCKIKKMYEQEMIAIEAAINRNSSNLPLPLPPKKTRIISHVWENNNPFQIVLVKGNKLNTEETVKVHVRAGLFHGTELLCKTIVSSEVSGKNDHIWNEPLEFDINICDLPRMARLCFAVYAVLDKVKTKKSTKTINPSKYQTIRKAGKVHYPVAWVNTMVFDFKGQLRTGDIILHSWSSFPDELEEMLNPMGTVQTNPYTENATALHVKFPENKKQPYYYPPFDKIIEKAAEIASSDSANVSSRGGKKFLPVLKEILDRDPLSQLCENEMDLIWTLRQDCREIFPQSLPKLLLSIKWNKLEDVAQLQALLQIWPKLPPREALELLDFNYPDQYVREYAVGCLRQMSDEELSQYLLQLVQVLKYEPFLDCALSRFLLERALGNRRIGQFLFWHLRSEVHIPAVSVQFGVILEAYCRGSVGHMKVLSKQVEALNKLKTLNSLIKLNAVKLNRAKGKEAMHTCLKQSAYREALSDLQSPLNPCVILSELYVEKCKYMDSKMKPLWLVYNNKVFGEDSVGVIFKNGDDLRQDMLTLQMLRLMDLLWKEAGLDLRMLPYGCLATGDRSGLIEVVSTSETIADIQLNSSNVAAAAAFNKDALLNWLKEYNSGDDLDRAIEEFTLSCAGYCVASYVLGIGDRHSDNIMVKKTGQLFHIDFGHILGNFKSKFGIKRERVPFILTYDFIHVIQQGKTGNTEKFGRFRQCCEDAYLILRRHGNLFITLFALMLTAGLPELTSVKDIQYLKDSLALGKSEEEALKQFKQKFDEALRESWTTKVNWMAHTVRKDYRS
PI3Kβ, sequence (P27986 whole entry partner, the tested form may be a part, canonical isoform): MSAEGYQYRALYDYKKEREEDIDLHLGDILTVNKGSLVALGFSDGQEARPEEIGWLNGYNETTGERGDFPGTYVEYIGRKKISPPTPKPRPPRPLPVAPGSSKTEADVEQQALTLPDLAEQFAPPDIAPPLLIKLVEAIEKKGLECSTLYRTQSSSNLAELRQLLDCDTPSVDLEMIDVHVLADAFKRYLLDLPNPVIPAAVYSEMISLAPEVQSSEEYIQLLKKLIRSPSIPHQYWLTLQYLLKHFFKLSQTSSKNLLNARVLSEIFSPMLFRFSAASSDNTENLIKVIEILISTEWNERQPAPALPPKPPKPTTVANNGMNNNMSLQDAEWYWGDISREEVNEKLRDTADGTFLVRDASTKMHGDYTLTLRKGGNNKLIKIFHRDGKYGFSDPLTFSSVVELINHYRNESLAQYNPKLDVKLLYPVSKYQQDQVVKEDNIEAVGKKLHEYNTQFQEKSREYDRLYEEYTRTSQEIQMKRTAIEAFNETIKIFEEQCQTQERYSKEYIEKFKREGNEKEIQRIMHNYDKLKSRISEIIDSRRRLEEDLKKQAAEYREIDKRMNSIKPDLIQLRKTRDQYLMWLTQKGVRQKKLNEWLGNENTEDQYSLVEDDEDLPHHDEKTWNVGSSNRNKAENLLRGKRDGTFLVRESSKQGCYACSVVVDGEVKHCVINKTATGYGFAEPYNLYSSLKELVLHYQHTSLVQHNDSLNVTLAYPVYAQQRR

Broadly, the IC50 is the midpoint of a concentration-inhibition curve. The low end stands for greater potency, the high end for weaker potency. `CCc1nc2c(-c3cnc[nH]3)cc(N3CCOCC3)cc2n1-c1cc(C)nc2c(F)cccc12` [Example 211, 4-[2-ethyl-3-(8-fluoro-2-methylquinolin-4-yl)-7-(1H-imidazol-5-yl)benzimidazol-5-yl]morpholine] displayed an IC50 of 22 nM. Next, `Cc1nc2c(-c3nnc(Cl)[nH]3)cc(N3CCOCC3)cc2n1-c1ccnc2c(F)ccc(F)c12` [Example 180, 4-[7-(5-chloro-4H-1,2,4-triazol-3-yl)-3-(5,8-difluoroquinolin-4-yl)-2-methylbenzimidazol-5-yl]morpholine]: 42 nM; `CCCc1nc2c(-c3ncco3)cc(N3CCOCC3)cc2n1-c1ccnc2c(F)ccc(F)c12` (atropisomer, axis not shown) [Compound 356, 4-[3-(5,8-difluoroquinolin-4-yl)-7-(1,3-oxazol-2-yl)-2-propylbenzimidazol-5-yl]morpholine]: greater than 10000 nM. Under `Cc1nc2c(-c3cscn3)cc(N3CCOCC3)cc2n1-c1ccnc2ccccc12` [Example 265, 4-[2-methyl-3-quinolin-4-yl-7-(1,3-thiazol-4-yl)benzimidazol-5-yl]morpholine] stands 460 nM; under `CCCc1nc2c(-c3nnc(C)[nH]3)cc(N3CCOCC3)cc2n1-c1ccnc2c(Cl)cccc12` [Example 46, 4-(1-(8-chloroquinolin-4-yl)-4-(5-methyl-4H-1,2,4-triazol-3-yl)-2-propyl-1H-benzo[d]imidazol-6-yl)morpholine], 19 nM. The molecule `CCc1nc2c(-c3cnn[nH]3)cc(N3CCOCC3)cc2n1-c1ccnc2c(F)ccc(F)c12` [Example 376, 4-(1-(5,8-difluoroquinolin-4-yl)-2-ethyl-4-(1H-1,2,3-triazol-5-yl)-1H-benzo[d]imidazol-6-yl)morpholine] returned an IC50 of 70 nM. Molecule `CCc1c(C)nc2ccccc2c1-n1cnc2c(-c3nnc[nH]3)cc(N3CCOCC3)cc21` [Example 71, 4-[3-(3-ethyl-2-methylquinolin-4-yl)-7-(4H-1,2,4-triazol-3-yl)benzimidazol-5-yl]morpholine] yielded an IC50 of 23 nM. Next, `Cc1nc2c(-c3cccnc3)cc(N3CCOCC3)cc2n1-c1ccnc2c(Cl)cccc12` [Example 317, 4-[3-(8-chloroquinolin-4-yl)-2-methyl-7-pyridin-3-ylbenzimidazol-5-yl]morpholine]: 690 nM; `Cc1nc2c(-c3nnc[nH]3)cc(N3CCOCC3)cc2n1-c1ccnc2c(F)ccc(F)c12` [Example 114, 4-[3-(5,8-difluoroquinolin-4-yl)-2-methyl-7-(4H-1,2,4-triazol-3-yl)benzimidazol-5-yl]morpholine]: 12 nM. Under `CCCc1nc2c(-c3ncco3)cc(N3CCOCC3)cc2n1-c1ccnc2c(F)ccc(F)c12` (atropisomer, axis not shown) [Compound 357, 4-[3-(5,8-difluoroquinolin-4-yl)-7(1,3-oxazol-2-yl)-2-propylbenzimidazol-5-yl]morpholine] stands 5 nM; under `Cc1nnc(-c2cc(N3CCOCC3)cc3c2ncn3-c2cc(-c3cn[nH]c3)nc3ccccc23)[nH]1` [Example 380, 4-(1-(2-(1H-pyrazol-4-yl)quinolin-4-yl)-4-(5-methyl-4H-1,2,4-triazol-3-yl)-1H-benzo[d]imidazol-6-yl)morpholine], 240 nM; under `CCc1nc2c(-c3nnc[nH]3)cc(N3CCOCC3)cc2n1-c1ccnc2ccccc12` [Example 107, 4-[2-ethyl-3-quinolin-4-yl-7-(4H-1,2,4-triazol-3-yl)benzimidazol-5-yl]morpholine], 29 nM. On to `Cc1nnc(-c2cc(N3CCOCC3)cc3c2nc(C)n3-c2ccnc3c(Cl)ccc(F)c23)[nH]1` [Example 94, 4-[3-(8-chloro-5-fluoroquinolin-4-yl)-2-methyl-7-(5-methyl-4H-1,2,4-triazol-3-yl)benzimidazol-5-yl]morpholine], for which it took 26 nM to reach half-maximal inhibition (IC50).

The molecule `Cc1nc2c(-c3nnc[nH]3)cc(N3CCOCC3)cc2n1-c1c(-c2nnc[nH]2)cnc2ccccc12` [Example 392, 4-(1-(3-(4H-1,2,4-triazol-3-yl)quinolin-4-yl)-2-methyl-4-(4H-1,2,4-triazol-3-yl)-1H-benzo[d]imidazol-6-yl)morpholine] yielded an IC50 of 9 nM. This IC50 lies about 2.9-fold lower than the previous one.

In turn, `Cc1nc2c(-c3cnc[nH]3)cc(N3CCOCC3)cc2n1-c1ccnc2c(F)ccc(F)c12` [Example 335, 4-[3-(5,8-difluoroquinolin-4-yl)-7-(1H-imidazol-5-yl)-2-methylbenzimidazol-5-yl]morpholine] showed an IC50 of 15 nM. Under `Cc1nc2c(-c3nnc[nH]3)cc(N3CCOCC3)c(F)c2n1-c1ccnc2c(Cl)cccc12` [Example 91, 4-[3-(8-chloroquinolin-4-yl)-4-fluoro-2-methyl-7-(4H-1,2,4-triazol-3-yl)benzimidazol-5-yl]morpholine] stands 19 nM; under `Cc1nnc(-c2cc(N3CCOCC3)cc3c2nc(C)n3-c2c(Cl)cnc3c(Cl)cccc23)[nH]1` (atropisomer, axis not shown) [Compound 367, 4-(1-(3,8-dichloroquinolin-4-yl)-2-methyl-4-(5-methyl-4H-1,2,4-triazol-3-yl)-1H-benzo[d]imidazol-6-yl)morpholine], 5600 nM; under `Cc1cccc2nccc(-n3c(C)nc4c(-c5nnc[nH]5)cc(N5CCOCC5)cc43)c12` (atropisomer, axis not shown) [Compound 362, 4-[2-methyl-3-(5-methylquinolin-4-yl)-7-(4H-1,2,4-triazol-3-yl)benzimidazol-5-yl]morpholine], 28 nM. Turning to `Cc1nc2c(-c3nnc[nH]3)cc(N3CCOCC3)cc2n1-c1ccnc2c(Cl)c(F)ccc12` [Example 39, 4-(1-(8-chloro-7-fluoroquinolin-4-yl)-2-methyl-4-(4H-1,2,4-triazol-3-yl)-1H-benzo[d]imidazol-6-yl)morpholine], the IC50 came out at 11 nM. Next, `Fc1ccc(F)c2c(-n3c(C4COC4)nc4c(-c5nnc[nH]5)cc(N5CCOCC5)cc43)ccnc12` [Example 123, 4-[3-(5,8-difluoroquinolin-4-yl)-2-(oxetan-3-yl)-7-(4H-1,2,4-triazol-3-yl)benzimidazol-5-yl]morpholine]: 110 nM; `CCc1nc2c(F)cccc2c(-n2c(C)nc3c(-c4nc(C)n[nH]4)cc(N4CCOCC4)cc32)c1C` [Example 80, 4-[3-(2-ethyl-8-fluoro-3-methylquinolin-4-yl)-2-methyl-7-(3-methyl-1H-1,2,4-triazol-5-yl)benzimidazol-5-yl]morpholine]: 61 nM; `Fc1ccc(F)c2c(-n3cnc4c(-c5cnc(C(F)(F)F)[nH]5)cc(N5CCOCC5)cc43)ccnc12` [Example 390, 4-(1-(5,8-difluoroquinolin-4-yl)-4-(2-(trifluoromethyl)-1H-imidazol-5-yl)-1H-benzo[d]imidazol-6-yl)morpholine]: 840 nM. Under `Cc1nc2c(-c3nccs3)cc(N3CCOCC3)cc2n1-c1ccnc2c(Cl)ccc(F)c12` [Example 240, 4-[3-(8-chloro-5-fluoroquinolin-4-yl)-2-methyl-7-(1,3-thiazol-2-yl)benzimidazol-5-yl]morpholine] stands 2 nM. As for `CCCc1nc2c(-c3cnc[nH]3)cc(N3CCOCC3)cc2n1-c1ccnc2c(Cl)cccc12` [Example 207, 4-[3-(8-chloroquinolin-4-yl)-7-(1H-imidazol-5-yl)-2-propylbenzimidazol-5-yl]morpholine], the midpoint of inhibition, the IC50, lay at 13 nM.

Molecule `Cc1nc2c(-c3nnc(Cl)[nH]3)cc(N3CCOCC3)cc2n1-c1ccnc2c(Cl)cccc12` (atropisomer, axis not shown) [Compound 359, 4-[3-(8-chloroquinolin-4-yl)-7-(5-chloro-4H-1,2,4-triazol-3-yl)-2-methylbenzimidazol-5-yl]morpholine] came in with an IC50 of 1200 nM. Against the preceding molecule, the IC50 is about 92-fold higher. Turning to `Clc1cccc2c(-n3cnc4c(-c5nnc[nH]5)cc(N5CCOCC5)cc43)ccnc12` [Example 111, 4-[3-(8-chloroquinolin-4-yl)-7-(4H-1,2,4-triazol-3-yl)benzimidazol-5-yl]morpholine], it took 3 nM to reach half-maximal inhibition (IC50). Under `Cc1nc2c(-c3nnc[nH]3)cc(N3CCOCC3)cc2n1-c1ccnc2c(C(F)(F)F)cccc12` [Example 108, 4-[2-methyl-7-(4H-1,2,4-triazol-3-yl)-3-[8-(trifluoromethyl)quinolin-4-yl]benzimidazol-5-yl]morpholine] stands 26 nM. Next, `Fc1ccc2c(-n3cnc4c(-c5nnc[nH]5)cc(N5CCOCC5)cc43)ccnc2c1` [Example 53, 4-(l-(7-fluoroquinolin-4-yl)-4-(4H-1,2,4-triazol-3-yl)-1H-benzo[d]imidazol-6-yl)morpholine]: 15 nM; `Clc1ncc(-c2cc(N3CCOCC3)cc3c2nc(CC2CC2)n3-c2ccnc3c(Cl)cccc23)[nH]1` [Example 301, 4-[7-(2-chloro-1H-imidazol-5-yl)-3-(8-chloroquinolin-4-yl)-2-(cyclopropylmethyl)benzimidazol-5-yl]morpholine]: 20 nM. Under `Cc1nc2c(-c3cscn3)cc(N3CCOCC3)cc2n1-c1ccnc2c(Cl)cccc12` [Example 270, 4-[3-(8-chloroquinolin-4-yl)-2-methyl-7-(1,3-thiazol-4-yl)benzimidazol-5-yl]morpholine] stands 36 nM; under `Cc1nnc(-c2cc(N3CCOCC3)cc3c2nc(C)n3-c2ccnc3c(F)ccc(F)c23)[nH]1` [Example 51, 4-(1-(5,8-difluoroquinolin-4-yl)-2-methyl-4-(5-methyl-4H-1,2,4-triazol-3-yl)-1H-benzo[d]imidazol-6-yl)morpholine], 15 nM.
